Series [1] deals with HIV. The experiment in a line: In vitro antiviral assay for HIV. To be noted: in vitro; (T) after a value means toxic; read-out: Antiviral Activities (EC50, μM) HIV. It counts as cell-based, human immunodeficiency virus. An outline of the steps: (§1)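 Performed according to previously reported procedures for each virus; no further conditions are given for the HSV-2, CMV, HIV or EBV assays.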

In series [2] the test system is CMV. The series can be described thus: In vitro antiviral assay for CMV. It counts as cell-based, cytomegalovirus. As to conditions: in vitro; read-out: Antiviral Activities (EC50, μM) CMV. The procedure: The antiviral assays for HBV, (Doong et al., 1991, Proc. Natl. Acad. Sci. U.S.A. 88:8495-8499) HSV-1, (Bastow et al., 1983, Antimicrob. Agents Chemother. 23: 914-917) HSV-2, (Bastow et al., 1983, Antimicrob. Agents Chemother. 23:914-917) EBV, (Yao et al., 1993, Antimicrob. Agents Chemother. 37:1420-1425), CMV (Andreoni et al., 2002, J. Med. Virol. 67:33-40) and HIV (Mellors et al., 1992, Mol. Pharmacol. 41: 446-451) were performed according to the previously reported procedures. Anti-HCV activities were tested in Huh-Luc/neo cell line. Cells were seeded into 48-well plates and grown until confluent. Different concentrations of drugs were added into media (DMEM, 10% dFBS) and incubated for 3 days. At the end of 3-day treatment, medium were removed and 50 μl of Passive lysis buffer (Promega) were added. Cell lysate was shaken at room temperature for 15 min. 30 μl/well of cell lysate was transferred to another 96-well plate, 100 μl/well of luciferase activity assay substrate was added into plate and read by a luminometer (Amersham) immediately.

In series [3] the test system is EBV. The experiment in a line: In vitro antiviral assay for EBV. As to conditions: in vitro; read-out: Antiviral Activities (EC50, μM) EBV. It counts as cell-based, Epstein-Barr Virus. The method, boiled down:
as §1

The subject of series [4] is HBV. The experiment in a line: In vitro antiviral assay for HBV (Table 1). It counts as cell-based, Hepatitis B virus. To be noted: in vitro; read-out: Antiviral Activities (EC50, μM) HBV.
The subject of series [5] is HSV-1. The series can be described thus: In vitro antiviral assay for HSV-1. It counts as cell-based, Herpes Simplex Virus 1. As to conditions: in vitro; read-out: Antiviral Activities (EC50, μM) HSV-1. The method, boiled down:
as §1

Series [6] has as its system MT-2 cells. The series can be described thus: Cell cytotoxicity assay on MT-2 cells. It counts as cell-based. To be noted: read-out: Cytotoxity (ID50, μM) MT-2. The method, boiled down:
(§2)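 MT-2 and CEM cytotoxicity determined per previously reported procedures. HepG2 cells seeded at 10^4 cells/ml in MEME + 10% FBS, compound added on day 2 for 3 further days at 37° C. Viable layer stained with methylene blue, solubilized in 1% sarcosyl, A595 read.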

Series [7] has as its system CEM cells. The experiment in a line: Cell cytotoxicity assay on CEM cells. To be noted: read-out: Cytotoxity (ID50, μM) CEM. It counts as cell-based. The method, boiled down: as §2
The test system of series [8] is HSV-2. The experiment in a line: In vitro antiviral assay for HSV-2. It counts as cell-based, Herpes Simplex Virus 2. To be noted: in vitro; read-out: Antiviral Activities (EC50, μM) HSV-2. An outline of the steps:
as §1

The test system of series [9] is HCV. As to conditions: ribavirin alone; cited from earlier work.
Series [10] relates to HCV. The series can be described thus: Anti-HCV activity in Huh-Luc/neo cell line, luciferase activity after 3-day treatment. It counts as cell-based, Hepatitis C virus. As to conditions: Huh-Luc/neo cells.
In series [11] the test system is HCV. As to conditions: patients chronically infected with HCV, IFN as sole treatment; cited from earlier work.

Structures can show the parent of a compound that is named as a salt. A value given as a limit tells only on which side of the number the result lay.

By EC50 is commonly meant the concentration at which the effect is half-maximal. With `O=C(O)c1cc2c(Br)cc3c(c2c(-c2ccc4c(c2)OCO4)c1CO)OCO3` [Compound 45, 9-Benzo[1,3]dioxol-5-yl-5-bromo-8-hydroxymethyl-naphtho[1,2-d][1.3]dioxole-7-carboxylic acid monosodium salt], the concentration giving a half-maximal response (EC50) in [1] was above 50 µM; in [2], above 20 µM; in series [3], above 20 µM; in [4], above 10 µM; in series [5], above 50 µM; in [8] it was above 50 µM. Moreover, the IC50 in series [6] is 50 µM; in series [7], 46.5 µM.
On to `NC(=O)c1ncn([C@@H]2O[C@H](CO)[C@@H](O)[C@H]2O)n1` [Ribavirin, 1-beta-D-ribofuranosyl-1-1,2,4-triazole-3-carboxamide], for which the “patients in whom serum amino transferase levels are reduced to normal” value in [9] is 40%.
On to Interferon, for which, in [10] (Interferon control), the “HCV column: concentration at which the percent of inhibition was seen” value was 10 u/ml. Moreover, the “HCV percent of inhibition” value in [10] (at 10 u/ml) was “(90) %”. Also, the “patients with a sustained response” value in series [11] is 8%-9%.

The values above are taken from patent US7754718B2 (priority 2004, dated 2010).
